Measurements published in US20100022559A1, “BISOXIMES AS FUNGICIDES” (BAYER CROPSCIENCE AG, priority 2006, published 2010).

Assay: logP determination by HPLC on a reversed-phase column (C 18), EEC Directive 79/831 Annex V.A8
Assay type: physicochemical
Details: value marked [b]
Experimental: The stated logP values were determined in accordance with EEC Directive 79/831 Annex V.A8 by HPLC (high performance liquid chromatography) on a reversed-phase column (C 18). Temperature: 43° C.

Compound | logP
CC(=NOCCCCON=C(c1cccc(C)n1)C1CC1)c1cccc(C)n1 [compound 335] | 3.28^[b]
CC(=NOCCCCON=C(C)c1ccnc(C)n1)c1cccc(C)n1 [compound 336] | 3.28^[b]
CC(=NOCCCCON=C(C)c1cccc(C)n1)c1cncc(C)c1 [compound 337] | 2.20^[b]
CC(=NOCCCCCCON=C(Cc1ccccc1)c1ncccc1C)c1cccc(C)n1 [compound 339] | 5.90^[b] (isomer B)
CC(=NOCCCCCCON=C(c1ccccc1)c1ncccc1C)c1cccc(C)n1 [compound 341] | 4.98^b]
CC(=NOCCCCCCON=C(C)c1cccc(CC(C)C)n1)c1cccc(C)n1 [compound 342] | 7.36^[b]
CCCC(=NOCCCCCCON=C(C)c1cccc(C)n1)c1cccc(C)n1 [compound 345] | 6.16^[b]
CC(=NOCCCCCCON=C(c1cccc(C)n1)C1CC1)c1cccc(C)n1 [compound 347] | 4.56^[b]
C=C(CON=C(C)c1cccc(C)n1)CON=C(Cc1ccccc1)c1ncccc1C [compound 349] | 4.82^[b]
C=C(CON=C(C)c1cccc(C)n1)CON=C(C)c1cccc(CC)n1 [compound 354] | 4.67^[b]
C=C(CON=C(C)c1cccc(C)n1)CON=C(c1ccccc1)c1cccc(C)n1 [compound 357] | 3.65^[b]
C=C(CON=C(C)c1cccc(C)n1)CON=C(CC)c1cccc(C)n1 [compound 358] | 4.30^[b]
C=C(CON=C(C)c1cccc(C)n1)CON=C(C)c1ccnc(C)n1 [compound 360] | 3.24^[b]
CC(=NOCC(C)(C)CON=C(c1ccccc1)c1ncccc1C)c1cccc(C)n1 [compound 365] | 4.51^[b]
CC(=NOCC(C)(C)CON=C(CC(C)C)c1ncccc1C)c1cccc(C)n1 [compound 366] | 5.97^[b]
CC(=NOCC(C)(C)CON=C(c1ncccc1C)C(C)C)c1cccc(C)n1 [compound 368] | 4.56^[b]
CC(=NOCCCCCCON=C(C)c1cccc(C)n1)c1cc(C)ccn1 [compound 386] | 3.94^[b]
CC(=NOCCCCCCON=C(C)c1cccc(C)n1)c1cccc(C(F)(F)F)c1 [compound 387] | 6.51^[b]
CC(=NOCCCCCCON=C(C)c1cccc(C)n1)c1ccccn1 [compound 388] | 4.41^[b]
CC(=NOCCCCCCON=C(C)c1cccc(C)n1)c1ccc2c(c1)OCO2 [compound 390] | 5.42^[b]

Compound | logP
CC(=NOCCCCCCON=C(C)c1ccccc1Cl)c1cccc(C)n1 [compound 391] | 5.84^[b]
CC(=NOCCCCCCON=C(C)c1cc2ccccc2o1)c1cccc(C)n1 [compound 393] | 5.78^[b]
CC(=NOCCCCCCON=C(C)c1cccc(C)n1)c1ccc(C)nc1 [compound 394] | 2.62^[b]
CC(=NOCCCCCCON=C(C)c1cccc(C)n1)c1cccnc1 [compound 396] | 3.15^b]
C=C(CON=C(C)c1cc(C)ccn1)CON=C(C)c1cccc(C)n1 [compound 398] | 2.76^[b]
C=C(CON=C(C)c1cccc(C(F)(F)F)c1)CON=C(C)c1cccc(C)n1 [compound 399] | 5.36^[b]
C=C(CON=C(C)c1ccc2c(c1)OCO2)CON=C(C)c1cccc(C)n1 [compound 401] | 4.20^[b]
C=C(CON=C(C)c1cccc(C)n1)CON=C(C)c1cc2ccccc2o1 [compound 404] | 4.57^[b]
C=C(CON=C(C)c1ccccc1)CON=C(C)c1cccc(C)n1 [compound 408] | 4.51^[b]
CC(=NOCC(C)(C)CON=C(C)c1cccc(C)n1)c1cc(C)ccn1 [compound 409] | 3.65^[b]
CC(=NOCC(C)(C)CON=C(C)c1cccc2ccccc12)c1cccc(C)n1 [compound 417] | 5.90^[b]
CC(=NOCC(C)(C)CON=C(C)c1cccc(C)n1)c1ccccc1 [compound 419] | 5.42^[b]
CCC(=NOCC(C)CON=C(C)c1cccc(C)n1)c1ncccc1C (stereo not drawn) [compound 425] | 3.99^[b]
CC(=NOCC(C)CON=C(C)c1cnnc(C)n1)c1cccc(C)n1 (stereo not drawn) [compound 426] | 3.24^[b]
CC(=NOCC(C)CON=C(C)c1ccnc(C)n1)c1cccc(C)n1 (stereo not drawn) [compound 430] | 3.56^[b]
CC(=NOCC(C)CON=C(C)c1cccc(C)n1)c1cncc(C)c1 (stereo not drawn) [compound 431] | 2.37^[b]
CC(=NOCC(C)CON=C(C)c1nc(C)c(C)s1)c1cccc(C)n1 (stereo not drawn) [compound 434] | 4.85^[b]
CC(=NOCC(C)CON=C(C)c1cccc(C)n1)c1ccc2c(c1)OCO2 (stereo not drawn) [compound 435] | 4.57^[b]
CC(=NOCC(C)CON=C(C)c1cccc(C)n1)c1cccnc1 (stereo not drawn) [compound 438] | 2.34^[b]

More lines, now with the values ahead:

logP | Compound
1.71^[b] | CC(=NOCCCCON=C(C)c1cccc(C)n1)c1ccnc(C)c1 [compound 338]
6.86^[b] | CC(=NOCCCCCCON=C(C)c1cccc(Cc2ccccc2)n1)c1cccc(C)n1 [compound 340]
4.87^[b] (isomer B) | CCC(=NOCCCCCCON=C(C)c1cccc(C)n1)c1ncccc1C [compound 343]
4.15^[b] | CC(=NOCCCCCCON=C(C)c1cnnc(C)n1)c1cccc(C)n1 [compound 344]
4.51^[b] | CC(=NOCCCCCCON=C(C)c1ccnc(C)n1)c1cccc(C)n1 [compound 348]
3.89^[b] | C=C(CON=C(C)c1cccc(C)n1)CON=C(c1ccccc1)c1ncccc1C [compound 351]
6.03^[b] | C=C(CON=C(C)c1cccc(C)n1)CON=C(C)c1cccc(CC(C)C)n1 [compound 352]
4.56^[b] | C=CCCC(=NOCC(=C)CON=C(C)c1cccc(C)n1)c1ncccc1C [compound 353]
4.87^[b] | C=C(CON=C(C)c1cccc(C)n1)CON=C(CCC)c1cccc(C)n1 [compound 355]
5.52^[b] | C=C(CON=C(C)c1cccc(C)n1)CON=C(CC(C)C)c1cccc(C)n1 [compound 356]
2.20^[b] | C=C(CON=C(C)c1cncc(C)c1)CON=C(C)c1cccc(C)n1 [compound 361]
5.71^[b] | CC(=NOCC(C)(C)CON=C(Cc1ccccc1)c1ncccc1C)c1cccc(C)n1 [compound 363]
4.51^[b] | CCC(=NOCC(C)(C)CON=C(C)c1cccc(C)n1)c1ncccc1C [compound 369]
4.62^[b] | CC(=NOCCCCON=C(C)c1nc(C)c(C)s1)c1cccc(C)n1 [compound 377]
4.35^[b] | CC(=NOCCCCON=C(C)c1cccc(C)n1)c1ccc2c(c1)OCO2 [compound 378]
4.85^[b] | CC(=NOCCCCON=C(C)c1ccccc1Cl)c1cccc(C)n1 [compound 379]
3.85^[b] | COc1ccc(C(C)=NOCCCCON=C(C)c2cccc(C)n2)cc1OC [compound 380]
4.74^[b] | CC(=NOCCCCON=C(C)c1cc2ccccc2o1)c1cccc(C)n1 [compound 381]
1.90^[b] | CC(=NOCCCCON=C(C)c1cccc(C)n1)c1ccc(C)nc1 [compound 382]
5.19^[b] | CC(=NOCCCCON=C(C)c1cccc2ccccc12)c1cccc(C)n1 [compound 383]
2.18^[b] | CC(=NOCCCCON=C(C)c1cccc(C)n1)c1cccnc1 [compound 384]
4.68^[b] | CC(=NOCCCCON=C(C)c1cccc(C)n1)c1ccccc1 [compound 385]
4.91^[b] | COc1ccc(C(C)=NOCCCCCCON=C(C)c2cccc(C)n2)cc1OC [compound 392]

logP | Compound
6.16^[b] | CC(=NOCCCCCCON=C(C)c1cccc2ccccc12)c1cccc(C)n1 [compound 395]
5.78^[b] | CC(=NOCCCCCCON=C(C)c1cccc(C)n1)c1ccccc1 [compound 397]
4.74^[b] | C=C(CON=C(C)c1cccc(C)n1)CON=C(C)c1ccccc1Cl [compound 402]
3.75^[b] | C=C(CON=C(C)c1ccc(OC)c(OC)c1)CON=C(C)c1cccc(C)n1 [compound 403]
5.02^[b] | C=C(CON=C(C)c1cccc(C)n1)CON=C(C)c1cccc2ccccc12 [compound 406]
2.15^[b] | C=C(CON=C(C)c1cccnc1)CON=C(C)c1cccc(C)n1 [compound 407]
6.16^[b] | CC(=NOCC(C)(C)CON=C(C)c1cccc(C)n1)c1cccc(C(F)(F)F)c1 [compound 410]
5.36^[b] | CC(=NOCC(C)(C)CON=C(C)c1nc(C)c(C)s1)c1cccc(C)n1 [compound 411]
5.08^[b] | CC(=NOCC(C)(C)CON=C(C)c1cccc(C)n1)c1ccc2c(c1)OCO2 [compound 412]
5.59^[b] | CC(=NOCC(C)(C)CON=C(C)c1ccccc1Cl)c1cccc(C)n1 [compound 413]
4.57^[b] | COc1ccc(C(C)=NOCC(C)(C)CON=C(C)c2cccc(C)n2)cc1OC [compound 414]
5.42^[b] | COc1ccc(C(C)=NOCC(C)(C)CON=C(C)c2cc3ccccc3o2)cc1OC [compound 415]
2.80^[b] | CC(=NOCC(C)(C)CON=C(C)c1cccc(C)n1)c1cccnc1 [compound 418]
4.15^[b] | CC(=NOCC(C)CON=C(c1ccccc1)c1ncccc1C)c1cccc(C)n1 (stereo not drawn) [compound 421]
4.51^[b] | CC(=NOCC(C)CON=C(CC(C)C)c1ncccc1C)c1cccc(C)n1 (stereo not drawn) [compound 422]
4.10^[b] | C=CCCC(=NOCC(C)CON=C(C)c1cccc(C)n1)c1ncccc1C (stereo not drawn) [compound 424]
1.80^[b] | CC(=NOCC(C)CON=C(C)c1cccc(C)n1)c1ccnc(C)c1 (stereo not drawn) [compound 432]
5.71^[b] | CC(=NOCC(C)CON=C(C)c1cccc(C)n1)c1cccc(C(F)(F)F)c1 (stereo not drawn) [compound 433]
5.08^[b] | CC(=NOCC(C)CON=C(C)c1ccccc1Cl)c1cccc(C)n1 (stereo not drawn) [compound 436]
5.36^[b] | CC(=NOCC(C)CON=C(C)c1cccc2ccccc12)c1cccc(C)n1 (stereo not drawn) [compound 437]
4.91^[b] | CC(=NOCC(C)CON=C(C)c1cccc(C)n1)c1ccccc1 (stereo not drawn) [compound 439]
1.88^[b] | CC(=NOCCCCON=C(C)c1cccc(C)n1)c1ccncc1 [compound 440]
